{"source": "patent US7241613B1", "about": "“Identification of Candida cell surface proteins and their uses” (priority 2002, dated 2007)", "key": {"C. albicans null mutants": {"system": "C. albicans null mutants", "experiment": "Sensitivities to calcofluor white, SDS or NaCl (spotting cells on YPD plates)", "assay_type": "cell-based, Candida albicans", "details": "for Calcofluor white (CW) sensitivity: 3-25 μg/ml CW; for Calcofluor white (CW) sensitivity / NaCl sensitivity: YPD plates, 37° C.; for NaCl sensitivity: 1-3 M NaCl", "method": "To investigate the effect of gene disruption on cell wall integrity and remodeling, we tested the sensitivity of all csf null mutants to calcofluor white (CW; Fluorescent Brightener 28-Sigma), SDS or NaCl by spotting cells on plates. Exponential cultures were harvested and adjusted to an OD600 of 0.24. 2.5 μl of samples plus three to four tenfold serial dilutions were deposited on the surface of YPD plates containing increasing concentrations of the compound: 3-25 μg/ml CW, 1-3 M NaCl, 0.01-0.5% SDS. […]\nWe further characterized the mutants by determining their susceptibility to calcofluor white, SDS and NaCl. The first column contains the name of the strains.\nTo go further in the analysis, we decided to test cells for their ability to respond to hyperosmotic stresses that require cell wall remodeling and integrity."}, "[1]": {"system": "C. albicans csf null mutants, clinical isolate and parental strain", "experiment": "Antifungal susceptibility assay (MIC, NCCLS M27A)", "assay_type": "cell-based, Candida albicans", "details": "all isolates, RPMI 1640, 35° C., 48 hours", "method": "Assays were performed at the Center for Medical Mycology, University Hospitals of Cleveland to investigate whether the csf null mutants show a higher susceptibility to antifungals when compared to wild-type. The minimum inhibitory concentrations (MIC) of three antifungal agents, amphotericin B, fluconazole and micafungin, against each fungal isolate were determined according to the NCCLS M27A standard for susceptibility testing of yeasts. […] The MIC endpoint was defined as the lowest concentration that inhibits 80% of fungal growth as compared to the growth control, for fluconazole and micafungin, and 100% inhibition for amphotericin B.\nIn order to investigate more extensively the effects induced by the loss of the targeted genes on the cell wall (e.g. cell wall permeability), we tested whether the mutant strains were more susceptible to antifungal drugs. Three different antifungal agents were tested at Cleaveland: one polyene (Amphotericin B; a compound that binds to ergosterols and increases membrane permeability), one azole (Fluconazole; a compound that interferes with the ergosterol biosynthesis pathway) and one echinochandin (Micafungin; a compound that inhibits the β-glucan synthetase). No differences in MIC were detected. The MIC of amphotericin B against all isolates, including the clinical isolate and parental strain, was 0.5-1 μg/ml."}, "[2]": {"system": "Sap2p, Sap1p, Sap1p and Sap1p", "details": "in micromolar concentrations; cited from earlier work"}, "hsp90": {"biological_target": "hsp90 (Candida albicans, UniProt P46598)", "sequence (P46598 whole entry)": "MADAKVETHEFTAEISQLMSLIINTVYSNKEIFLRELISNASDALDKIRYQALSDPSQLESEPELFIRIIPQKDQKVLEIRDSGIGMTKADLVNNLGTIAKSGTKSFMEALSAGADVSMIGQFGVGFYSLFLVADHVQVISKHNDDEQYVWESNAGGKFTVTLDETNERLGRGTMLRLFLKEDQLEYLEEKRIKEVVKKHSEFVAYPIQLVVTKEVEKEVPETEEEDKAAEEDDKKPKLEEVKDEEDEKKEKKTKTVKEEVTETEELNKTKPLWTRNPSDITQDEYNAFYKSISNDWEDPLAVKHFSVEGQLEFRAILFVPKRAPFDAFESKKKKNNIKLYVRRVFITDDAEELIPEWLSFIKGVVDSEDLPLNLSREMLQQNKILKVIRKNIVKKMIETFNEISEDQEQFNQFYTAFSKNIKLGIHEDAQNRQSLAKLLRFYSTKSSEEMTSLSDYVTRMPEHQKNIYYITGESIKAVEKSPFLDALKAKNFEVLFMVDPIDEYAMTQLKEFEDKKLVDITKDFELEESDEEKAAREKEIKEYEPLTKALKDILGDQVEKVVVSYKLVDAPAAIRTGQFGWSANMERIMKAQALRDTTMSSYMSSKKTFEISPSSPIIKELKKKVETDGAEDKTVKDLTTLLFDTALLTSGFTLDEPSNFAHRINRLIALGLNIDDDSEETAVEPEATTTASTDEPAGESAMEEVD", "details": "first stage of double-blind Phase II trial, systemic candidiasis; cited from earlier work"}, "[3]": {"details": "6.1231 null mutant vs wild type"}, "[4]": {"details": "6.1639 null mutant vs wild type"}, "[5]": {"details": "6.3873 null mutant vs wild type"}, "[6]": {"details": "Candida albicans, endpoint 80% inhibition of fungal growth, read-out: MIC"}}, "note": "Read-outs that look alike come from different tables or passages of the source. Starred links: 1 amine or outer side, 2 acyl side, 3 side chain; linkers in the order of their positions; H or OH if unused. Positions of bridges follow the written chain, without caps; N, C: chain ends. Non-standard residues stand in square brackets, D forms with d. Residues, ends and D or L forms follow the SMILES beside them. *: point of attachment. hTyr(3S-OH,4S-OH,3'-OSO3H) = N[C@H](C(=O)O)[C@H](O)[C@@H](O)c1ccc(O)c(OS(=O)(=O)O)c1; Orn(4R-OH,5R-OH) = O=C([C@H](C[C@@H](O)[C@@H](O)N[*:3])N[*:1])[*:2]; Pro(3S-OH,4S-Me) = C[C@H]1CN[C@H](C(=O)O)[C@H]1O; X1 = CCCCCOc1ccc(-c2cc(-c3ccc(C(=O)*)cc3)no2)cc1; Gln(3R-OH) = NC(=O)C[C@@H](O)[C@H](N)C(=O)O; Hyp = O=C(O)[C@@H]1C[C@@H](O)CN1"}
{"molecule": "O=S(=O)(O)c1cc(Nc2nc(Nc3ccccc3)nc(N(CCO)CCO)n2)ccc1/C=C/c1ccc(Nc2nc(Nc3ccccc3)nc(N(CCO)CCO)n2)cc1S(=O)(=O)O", "note": "[Calcofluor white, calcofluor white]", "values": [{"measurement": "Calcofluor white (CW) sensitivity", "setting": "C. albicans null mutants; [3]", "value": "+++"}, {"measurement": "growth in the presence of calcofluor", "setting": "C. albicans null mutants; 6.1231Δ, 25 μg/ml calcofluor", "value": "no more cells were growing"}, {"measurement": "Calcofluor white (CW) sensitivity", "setting": "C. albicans null mutants; [4]", "value": "+"}, {"measurement": "Calcofluor white (CW) sensitivity", "setting": "C. albicans null mutants; [5]", "value": "++"}, {"measurement": "Calcofluor white (CW) sensitivity", "setting": "C. albicans null mutants; als1 null mutant vs wild type", "value": "+"}, {"measurement": "Calcofluor white (CW) sensitivity", "setting": "C. albicans null mutants; hwp1 null mutant vs wild type", "value": "+"}, {"measurement": "Calcofluor white (CW) sensitivity", "setting": "C. albicans null mutants; mp65 null mutant vs wild type", "value": "+++"}, {"measurement": "sensitivity to calcofluor white", "setting": "C. albicans null mutants; mp65Δ", "value": "highly sensitive"}, {"measurement": "Calcofluor white (CW) sensitivity", "setting": "C. albicans null mutants; pra1 null mutant vs wild type", "value": "++"}, {"measurement": "Calcofluor white (CW) sensitivity", "setting": "C. albicans null mutants; sap9 null mutant vs wild type", "value": "+"}]}
{"molecule": "[Cl-].[Na+]", "note": "[NaCl]", "values": [{"measurement": "NaCl sensitivity", "setting": "C. albicans null mutants; [3]", "value": "+"}, {"measurement": "NaCl sensitivity", "setting": "C. albicans null mutants; [4]", "value": "+"}, {"measurement": "NaCl sensitivity", "setting": "C. albicans null mutants; [5]", "value": "+"}, {"measurement": "sensitivity to NaCl (hyperosmotic stress)", "setting": "C. albicans null mutants; all six csf mutants, increasing NaCl concentration (0-3M), 24 h at 37° C.", "value": "as sensitive as the parental strain"}, {"measurement": "NaCl sensitivity", "setting": "C. albicans null mutants; als1 null mutant vs wild type", "value": "+"}, {"measurement": "NaCl sensitivity", "setting": "C. albicans null mutants; hwp1 null mutant vs wild type", "value": "+"}, {"measurement": "NaCl sensitivity", "setting": "C. albicans null mutants; mp65 null mutant vs wild type", "value": "+"}, {"measurement": "NaCl sensitivity", "setting": "C. albicans null mutants; pra1 null mutant vs wild type", "value": "+"}, {"measurement": "NaCl sensitivity", "setting": "C. albicans null mutants; sap9 null mutant vs wild type", "value": "+"}]}
{"molecule": "CCCCCCCCCCCCOS(=O)(=O)[O-].[Na+]", "note": "[SDS, sodium dodecyl sulfate]", "values": [{"measurement": "sensitivity to SDS", "setting": "C. albicans null mutants; mp65Δ, 6.1639Δ and sap9Δ, increasing concentrations of SDS (0-0.5%), 24 h at 37° C.", "value": "hypersensitive"}]}
{"molecule": "C[C@@H]1[C@H](O)[C@@H](C)/C=C/C=C/C=C/C=C/C=C/C=C/C=C/[C@H](O[C@@H]2O[C@H](C)[C@@H](O)[C@H](N)[C@@H]2O)C[C@@H]2O[C@](O)(C[C@@H](O)C[C@@H](O)[C@H](O)CC[C@@H](O)C[C@@H](O)CC(=O)O[C@H]1C)C[C@H](O)[C@H]2C(=O)O", "note": "[amphotericin B]", "values": [{"measurement": "MIC", "setting": "[1]; including the clinical isolate and parental strain, endpoint 100% inhibition", "value": "0.5 to 1", "unit": "µg/mL"}]}
{"molecule": "OC(Cn1cncn1)(Cn1cncn1)c1ccc(F)cc1F", "note": "[fluconazole]", "values": [{"measurement": "MIC", "setting": "[1]; [6]", "value": 0.25, "unit": "µg/mL"}]}
{"molecule": "CCCCCOc1ccc(-c2cc(-c3ccc(C(=O)N[C@H]4C[C@@H](O)[C@@H](O)NC(=O)[C@@H]5[C@@H](O)[C@@H](C)CN5C(=O)[C@H]([C@H](O)CC(N)=O)NC(=O)[C@H]([C@H](O)[C@@H](O)c5ccc(O)c(OS(=O)(=O)O)c5)NC(=O)[C@@H]5C[C@@H](O)CN5C(=O)[C@H]([C@@H](C)O)NC4=O)cc3)no2)cc1", "note": "[micafungin] (X1-[Orn(4R-OH,5R-OH)]T[Hyp][hTyr(3S-OH,4S-OH,3'-OSO3H)][Gln(3R-OH)][Pro(3S-OH,4S-Me)]; lactam 1-C)", "values": [{"measurement": "MIC", "setting": "[1]; [6]", "value": 0.008, "unit": "µg/mL"}]}
{"molecule": "CC(C)c1nc(CN(C)C(=O)N[C@H](C(=O)N[C@@H](Cc2ccccc2)C[C@H](O)[C@H](Cc2ccccc2)NC(=O)OCc2cncs2)C(C)C)cs1", "note": "[ritonavir]", "values": [{"measurement": "inhibition of the activity of Sap2p, Sap1p, Sap1p and Sap1p", "setting": "[2]", "value": "inhibit the activity"}]}
{"molecule": "CC(C)(C)NC(=O)[C@@H]1C[C@@H]2CCCC[C@@H]2CN1C[C@@H](O)[C@H](Cc1ccccc1)NC(=O)[C@H](CC(N)=O)NC(=O)c1ccc2ccccc2n1", "note": "[saquinavir]", "values": [{"measurement": "inhibition of the activity of Sap2p, Sap1p, Sap1p and Sap1p", "setting": "[2]", "value": "inhibit the activity"}]}
{"molecule": "Mycograb: monoclonal antibodies directed against hsp90 in clinical trials for systemic candidiasis (antibody, chains of the INN, looked up, V domains shown, scFv, monoclonal antibodies directed against hsp90 in clinical trials for systemic candidiasis) VH: EVQLVESGAEVKKPGESLRISCKGSGCIISSYWISWVRQMPGKGLEWMGKIDPGDSYINYSPSFQGHVTISADKSINTAYLQWNSLKASDTAMYYCARGGRDFGDSFDYWGQGTLVTVSS VL: DVVMTQSPSFLSAFVGDRITITCRASSGISRYLAWYQQAPGKAPKLLIYAASTLQTGVPSRFSGSGSGTEFTLTINSLQPEDFATYYCQHLNSYPLTFGGGTKVDIK", "values": [{"measurement": "serious adverse events", "setting": "hsp90", "value": "No serious adverse events"}]}
